Results as given in patent US20230103631A1, “PEPTIDES AS SELECTIVE GIP RECEPTOR AGONISTS” (Sanofi, priority 2020, published 2023).
*1 amine or outer side, *2 acyl side, *3 side chain or, on linkers, in order; H or OH if unused. Where a SMILES comes first, the peptide text is derived from it. Side-chain parts run from the residue outwards. [ ]: non-standard residue; d: D form. The star is where a group is joined. C18 diacid = O=C(O)CCCCCCCCCCCCCCCCC(=O)*; γGlu = O=C(O)[C@H](CCC(=O)[*:2])N[*:1]; AEEA = NCCOCCOCC(=O)O; Aib = CC(C)(N)C(=O)O

Assays:
[1] = molecular target: T1, human GIP receptor (hGIPR) (Homo sapiens, UniProt P48546); experiment: Binding assay, displacement of [125I]GIP from HEK-293 membranes expressing GIPR; conditions: [125I]GIP displacement
T1 sequence (P48546 22-466): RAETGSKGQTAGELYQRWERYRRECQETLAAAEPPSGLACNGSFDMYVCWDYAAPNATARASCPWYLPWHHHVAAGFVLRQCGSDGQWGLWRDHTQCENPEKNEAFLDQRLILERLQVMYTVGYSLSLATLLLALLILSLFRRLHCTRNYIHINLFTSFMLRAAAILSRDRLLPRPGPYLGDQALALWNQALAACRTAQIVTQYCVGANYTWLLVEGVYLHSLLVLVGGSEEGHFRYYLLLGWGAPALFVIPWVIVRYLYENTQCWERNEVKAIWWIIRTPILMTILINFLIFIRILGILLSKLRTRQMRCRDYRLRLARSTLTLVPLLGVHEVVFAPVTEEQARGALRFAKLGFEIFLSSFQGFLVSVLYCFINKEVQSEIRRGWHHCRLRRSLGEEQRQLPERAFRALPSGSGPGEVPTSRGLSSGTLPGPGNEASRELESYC
Method in brief: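 Membranes prepared from HEK-293 cells recombinantly over-expressing GIPR by homogenisation, sonication and 100000×g ultracentrifugation. Pellets resuspended in 20 mM HEPES, 1 mM EDTA, 150 mM NaCl with protease inhibitors; protein content by BCA.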

human GIP receptor = molecular target: T2, human GIP receptor (Homo sapiens, UniProt P48546); experiment: cAMP HTRF assay in human adipocytes endogenously expressing the human GIP receptor; assay type: cell-based; conditions: read-out: hGIPR Emax
T2 construct: human adipocytes endogenously expressing the human GIP receptor; host or cells: human preadipocytes (Lonza) differentiated to adipocytes
T2 sequence (P48546 22-466): T1 sequence (P48546 22-466)
Method in brief: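 Human preadipocytes were differentiated for 6 days and plated at 5000 cells/well. They were then stimulated with compound for 30 min at room temperature. Generated cAMP was measured by HTRF.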

[2] = Dynamic light scattering (DLS) for the assessment of physical stability; assay type: physicochemical; conditions: DLS buffer system A
Method in brief: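 Measured by dynamic light scattering (830 nm, 25 °C) with NNLS fitting: hydrodynamic radius via Stokes-Einstein, plus intensity and mass contribution, mean of 3-6 replicates. Samples were 300 μM (purity-based target) in phosphate pH 7.4 buffers, plain or containing propylene glycol/phenol or m-cresol, filtered 0.22 μm.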

CC[C@H](C)[C@H](NC(=O)[C@H](Cc1ccccc1)NC(=O)[C@H](CCC(=O)O)NC(=O)[C@H](CCC(=O)O)NC(=O)[C@H](CCC(N)=O)NC(=O)[C@H](Cc1c[nH]cn1)NC(=O)[C@@H](NC(=O)[C@H](CCCNC(=N)N)NC(=O)[C@H](CC(=O)O)NC(=O)[C@H](CCCCNC(=O)COCCOCCNC(=O)COCCOCCNC(=O)CC[C@H](NC(=O)CCCCCCCCCCCCCCCCC(=O)O)C(=O)O)NC(=O)C(C)(C)NC(=O)[C@@H](NC(=O)[C@H](CO)NC(=O)[C@H](CC(C)C)NC(=O)[C@H](CC(=O)O)NC(=O)[C@H](CO)NC(=O)[C@@H](NC(=O)[C@H](Cc1ccccc1)NC(=O)[C@@H](NC(=O)CNC(=O)[C@H](CCC(=O)O)NC(=O)C(C)(C)NC(=O)[C@@H](N)Cc1ccc(O)cc1)[C@@H](C)O)[C@@H](C)CC)[C@@H](C)CC)[C@@H](C)CC)C(=O)N[C@@H](CCC(=O)O)C(=O)N[C@@H](Cc1c[nH]c2ccccc12)C(=O)N[C@@H](CC(C)C)C(=O)N[C@@H](CC(C)C)C(=O)N[C@@H](C)C(=O)N[C@@H](CCC(N)=O)C(=O)NCC(=O)N1CCC[C@H]1C(=O)N[C@@H](CO)C(=O)N[C@@H](CO)C(=O)NCC(=O)N[C@@H](C)C(=O)N1CCC[C@H]1C(=O)N1CCC[C@H]1C(=O)N1CCC[C@H]1C(=O)N[C@@H](CO)C(=O)O [SEQ ID NO: 11, H2N-Y-Aib-E-G-T-F-I-S-D-I-S-I-Aib-K[{AEEA}2-gGlu-C18OH]-DRIHQEEFIEWILAQGPSSGAPPPS-OH] (H-Y[Aib]EGTFISDLSI[Aib]K([AEEA-AEEA-γGlu-C18 diacid])DRIHQEEFIEWLLAQGPSSGAPPPS-OH)
IC50 [1]: 0.5 nM
Emax (human GIP receptor): 122%
I and SD (Scattering Intensity) ([2]; 0 weeks): 96 ± 1%
M and SD (Mass Contribution) ([2]; 0 weeks): 100 ± 0%
apparent Rh and SD ([2]; 0 weeks): 1.82 ± 0.04 nm
I and SD (Scattering Intensity) ([2]; 4 weeks storage at 40° C.): 85 ± 2%
M and SD (Mass Contribution) ([2]; 4 weeks storage at 40° C.): 100 ± 0%
apparent Rh and SD ([2]; 4 weeks storage at 40° C.): 1.83 ± 0.05 nm
